Measurements taken from article PMC10958125 (Clinical and Translational Medicine, 2024).
Read-outs that look alike come from different tables or passages of the source.

Assays:
[1] = human, in vivo
[2] = tested on: metastatic prostate cancer patients; parameters: method as in PMID 15470213; settings: TAX327 trial, cited from earlier work
[3] = tested on: metastatic prostate cancer patients; parameters: method as in PMID 28753384; settings: FIRSTANA trial, cited from earlier work
[4] = tested on: metastatic prostate cancer patients; settings: cited from earlier work
[5] = clinical; settings: human, in vivo, iv, 75 mg/m2
[6] = tested on: metastatic prostate cancer patients; type: in vivo; settings: lycopene alone for 2 weeks from day 1, dose escalation cohort
[7] = Plasma lycopene levels (HPLC); type: in vivo, human
[8] = tested on: Vascular endothelial growth factor A (VEGF‐A); experiment: Plasma VEGF-A, sandwich ELISA; type: in vivo, human
Description: (§1) Vascular endothelial growth factor A (VEGF‐A) was measured on Ethylenediaminetetraacetic acid plasma from subjects 1−12 of the dose escalation cohort, with a commercial sandwich ELISA kit (R&D Systems). Circulating endothelial cells (CECs) were measured with an 11‐colour flow cytometry scheme using a method adopted from a previously published protocol.[36] The definition for CECs was viable cells (alive, intact nucleus) that were positive for surface CD31 and CD34, and that were negative for haematopoietic marker CD45. Additional exploratory markers were CD105 and CD146. […] Samples were collected before the scheduled docetaxel dose for that day.
(§2) Both VEGF‐A and CEC levels were analysed using linear mixed‐effects regression models with a subject‐level random effect included to account for within‐subject correlation. Models were adjusted for the individual's baseline levels in both outcomes. All analyses and hypothesis testing were completed on the log scale and back transformed to estimate fold changes. Analysis was completed in the R environment,[37] with all tests level α = .05. The VEGF‐A levels were near‐linear over time, so time was treated as continuous, and slopes between groups were compared using Wald tests. Levels of CECs were non‐linear over time; therefore, time was treated as a fixed factor in the CEC model, with a time‐by‐dose interaction effect. Pairwise tests of differences between the CEC model‐based estimated means at each time point after zero were completed using the emmeans package.[38] As these analyses are exploratory/hypothesis generating, no multiple comparison adjustments have been made. Simple Bonferroni adjustments would lead to p‐value cutoffs of .01 (five comparisons) and .0033 (15 comparisons) for the VEGF‐A and CEC analyses, respectively.

[9] = tested on: Circulating endothelial cells (CECs); experiment: Circulating endothelial cells, flow cytometry; type: in vivo, human
Description: as §1, §2

[10] = tested on: Insulin‐like growth factor binding protein 3 (IGFBP‐3); experiment: Plasma IGFBP-3, sandwich ELISA; type: in vivo, human; settings: all lycopene doses, any time point
Description: Insulin‐like growth factor binding protein 3 (IGFBP‐3) levels were measured in duplicate by sandwich ELISA assays using kits from eBioscience in subjects 1–12 of the dose escalation cohort.

[11] = tested on: metastatic prostate cancer patients
[12] = biological target: IGF‐1R (Homo sapiens, UniProt P08069); experiment: Ligand-dependent phosphorylation of IGF-1R(Y1131) in PBMCs stimulated ex vivo with rhIGF-1; settings: patients
IGF‐1R, sequence (P08069 31-1367): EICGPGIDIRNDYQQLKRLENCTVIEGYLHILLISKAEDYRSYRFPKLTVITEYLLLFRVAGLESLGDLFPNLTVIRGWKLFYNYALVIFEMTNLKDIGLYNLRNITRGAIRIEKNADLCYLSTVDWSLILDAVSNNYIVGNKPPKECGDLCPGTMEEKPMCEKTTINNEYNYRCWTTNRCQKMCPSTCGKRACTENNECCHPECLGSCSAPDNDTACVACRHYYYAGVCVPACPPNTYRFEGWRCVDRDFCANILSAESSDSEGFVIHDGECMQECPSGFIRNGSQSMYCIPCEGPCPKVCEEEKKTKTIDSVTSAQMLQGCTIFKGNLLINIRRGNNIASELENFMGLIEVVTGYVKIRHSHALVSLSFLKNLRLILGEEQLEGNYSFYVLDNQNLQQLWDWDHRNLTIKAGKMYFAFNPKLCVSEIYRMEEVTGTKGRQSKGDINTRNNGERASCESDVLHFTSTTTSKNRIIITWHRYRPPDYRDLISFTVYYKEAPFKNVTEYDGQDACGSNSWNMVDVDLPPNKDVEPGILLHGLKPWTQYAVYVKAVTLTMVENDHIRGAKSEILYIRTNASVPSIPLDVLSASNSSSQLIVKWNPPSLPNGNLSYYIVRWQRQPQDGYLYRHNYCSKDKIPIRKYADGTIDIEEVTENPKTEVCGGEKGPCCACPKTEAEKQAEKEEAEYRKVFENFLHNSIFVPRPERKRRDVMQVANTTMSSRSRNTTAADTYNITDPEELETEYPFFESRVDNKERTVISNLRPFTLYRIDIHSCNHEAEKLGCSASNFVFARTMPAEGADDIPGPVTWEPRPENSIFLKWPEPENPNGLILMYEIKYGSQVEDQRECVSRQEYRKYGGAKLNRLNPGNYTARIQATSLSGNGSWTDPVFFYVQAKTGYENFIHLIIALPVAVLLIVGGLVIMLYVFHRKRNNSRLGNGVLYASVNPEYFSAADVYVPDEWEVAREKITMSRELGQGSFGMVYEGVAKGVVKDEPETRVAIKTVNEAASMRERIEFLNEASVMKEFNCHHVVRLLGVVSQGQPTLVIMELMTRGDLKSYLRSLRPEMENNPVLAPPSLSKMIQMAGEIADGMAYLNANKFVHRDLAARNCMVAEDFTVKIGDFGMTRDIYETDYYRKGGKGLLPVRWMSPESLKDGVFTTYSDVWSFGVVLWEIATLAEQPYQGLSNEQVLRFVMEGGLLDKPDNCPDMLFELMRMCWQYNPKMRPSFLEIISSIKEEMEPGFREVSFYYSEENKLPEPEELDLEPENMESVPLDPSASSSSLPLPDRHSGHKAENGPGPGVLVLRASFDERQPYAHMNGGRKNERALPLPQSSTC
Description: Briefly, ligand‐dependent phosphorylation of the IGF‐1R was estimated using an ex vivo assay that utilised peripheral blood mononuclear cells (PBMCs). […] The cells were then lysed, and the quantity of phosphoIGF‐1R(Y1131) was estimated by an ELISA assay (Cell Signalling Technologies). Ligand‐dependent phosphorylation was defined as the ratio of pIGF‐1R(Y1131) in ligand‐stimulated PBMCs to the same parameter for unstimulated PBMCs. […] Thus, the changes in the level of ligand‐dependent phosphorylation over time were analysed by both parametric and non‐parametric methods.
Measurement of IGF-1R (Y1131) phosphorylation in PBMNCs after ex vivo ligand treatment. […] The primary analyte was phosphorylation of the IGF-1R on Y1131, measured by ELISA on lysates of PBMCs treated (or not) with recombinant human IGF-1.
Whole blood (10mL) is collected into an ACD (acid citrate-dextrose) Vacutainer®. Peripheral blood mononuclear cells are collected by density gradient centrifugation using LSM Lymphoprep® and an Accuspin® 50mL tube (Sigma). The mononuclear cells are collected, washed x 2 with serum-free RPMI1640 medium, then resuspended in 1mL of RPMI 1640 medium + 0.1% BSA. Cells are then aliquoted into 1mL microcentrifuge tubes, 0.5mL of cells per tube per condition.
Cells are incubated for 1-2hr at 37C, then rhIGF-1 (Peprotech) is added to 50-500ng/mL final concentration. Incubation continues for 15min at 37C.
Cells are then pelleted and washed with 1mL of cold RPMI 1640 medium (no protein).
The cell pellet is lysed with 120mcL of Cell Signalling® ELISA buffer containing phosphatase inhibitors and protease inhibitors. The lysate can be stored at -80C or assayed immediately.
For total protein measurement follow the BCA method (BioRad).
For IGF-1R(Y1131) ELISA (Cell Signalling® #7302) proceed per kit instructions. […]
The standard will be used as a series of 2-fold dilutions, being diluted with assay buffer from the ELISA kit. […] Results will be expressed as X units of pIGF-1R protein per amount of protein in the lysate. The protein is measured by the BCA method, as mcg/mL.

## CC(=O)O[C@@]12CO[C@@H]1C[C@H](O)[C@@]1(C)C(=O)[C@H](O)C3=C(C)[C@@H](OC(=O)[C@H](O)[C@@H](NC(=O)OC(C)(C)C)c4ccccc4)C[C@@](O)([C@@H](OC(=O)c4ccccc4)[C@H]21)C3(C)C [docetaxel]
[1]
  Plasma docetaxel C max, geometric mean: 2810 ng/mL
[1]; iv, 75 mg/m2
  Plasma docetaxel AUClast, geometric mean: 2810 ng·h/mL
[2]; any grade
  Alopecia, % any: 65.1%
  Anaemia, % any: 66.5%
  Anorexia, % any: 16.6%
  Arthralgia, % any: 8.1%
  Cough, % any: 12.3%
  Diarrhoea, % any: 31.6%
  Dysgeusia, % any: 18.4%
  Dyspnoea, % any: 15.1%
  Fatigue, % any: 53.3%
  Febrile neutropenia, % any: 2.7%
  Infection, % any: 32.2%
  Nail changes, % any: 29.5%
  Nausea, % any: 41%
  Neutropenia, % any: 40.9%
  Peripheral oedema, % any: 18.1%
  Rash/desquamation, % any: 6%
  Sensory/motor neuropathy, % any: 30.4%
  Stomatitis/pharyngitis, % any: 19.6%
  Tearing, % any: 9.9%
  Thrombocytopenia, % any: 3.4%
  Vomiting, % any: 16.9%
[2]
  Anaemia, % grade 3+: 4.9%
  Anorexia, % grade 3+: 1.2%
  Arthralgia, % grade 3+: .6%
  Cough, % grade 3+: 0%
  Diarrhoea, % grade 3+: 2.1%
  Dysgeusia, % grade 3+: 0%
  Dyspnoea, % grade 3+: 2.7%
  Fatigue, % grade 3+: 4.5%
  Febrile neutropenia, % grade 3+: 2.7%
  Infection, % grade 3+: 5.7%
  Nausea, % grade 3+: 2.7%
  Neutropenia, % grade 3+: 32%
  Peripheral oedema, % grade 3+: .3%
  Sensory/motor neuropathy, % grade 3+: 1.8%
  Stomatitis/pharyngitis, % grade 3+: .9%
  Tearing, % grade 3+: .6%
  Thrombocytopenia, % grade 3+: .6%
  Vomiting, % grade 3+: 1.5%
[3]; any grade
  Alopecia, % any: 39%
  Anaemia, % any: 99.5%
  Anorexia, % any: 17.1%
  Arthralgia, % any: 8%
  Constipation, % any: 18.1%
  Cough, % any: 9.8%
  Diarrhoea, % any: 37%
  Dysgeusia, % any: 18.1%
  Dyspnoea, % any: 9.6%
  Fatigue, % any: 28.9%
  Febrile neutropenia, % any: 8.3%
  Infection, % any: 7.2%
  Nail changes, % any: 9%
  Nausea, % any: 22.7%
  Neutropenia, % any: 89%
  Pain in extremity, % any: 9.8%
  Peripheral oedema, % any: 20.4%
  Rash/desquamation, % any: 5.9%
  Sensory/motor neuropathy, % any: 25.1%
  Stomatitis/pharyngitis, % any: 13.7%
  Tearing, % any: 9.6%
  Thrombocytopenia, % any: 32.6%
  Vomiting, % any: 11.6%
[3]
  Anaemia, % grade 3+: 5.5%
  Anorexia, % grade 3+: .3%
  Arthralgia, % grade 3+: 1%
  Constipation, % grade 3+: 1%
  Cough, % grade 3+: 0%
  Diarrhoea, % grade 3+: 2.3%
  Dysgeusia, % grade 3+: 0%
  Dyspnoea, % grade 3+: .3%
  Fatigue, % grade 3+: .3%
  Febrile neutropenia, % grade 3+: 8.3%
  Infection, % grade 3+: 4.1%
  Nausea, % grade 3+: .8%
  Neutropenia, % grade 3+: 78.9%
  Pain in extremity, % grade 3+: 1%
  Peripheral oedema, % grade 3+: 1.6%
  Sensory/motor neuropathy, % grade 3+: 2.1%
  Stomatitis/pharyngitis, % grade 3+: .8%
  Tearing, % grade 3+: 0%
  Thrombocytopenia, % grade 3+: 1.6%
  Vomiting, % grade 3+: .8%
[4]; mCRPC
  Increased overall survival: 2.4 months
[4]; mCSPC
  Increased overall survival: 16.8 months
[5]
  AUC(0-inf): 3020 ng·h/mL

## CC(C)=CCC/C(C)=C/C=C/C(C)=C/C=C/C(C)=C/C=C/C=C(C)/C=C/C=C(C)/C=C/C=C(\C)CCC=C(C)C [lycopene]
[6]
  Adverse events during lycopene alone lead-in: No participant reported any adverse event
[7]; 30 mg daily synthetic lycopene with docetaxel
  Increase of plasma lycopene concentration from baseline: approximately 1.6 fold
[7]; Figure 2B
  Peak concentration of lycopene in plasma at 150 mg/day compared to 30 and 90 mg/day: did not further increase the peak concentration
[7]; after 99 days of treatment
  Mean lycopene concentration in plasma: .82 ± .49 µmol/L
[7]; baseline
  Mean lycopene concentration in plasma: .48 ± .37 µmol/L
[7]; baseline to 99 days
  Increase of plasma lycopene during treatment: 93.4%
[8]; lycopene 30 mg/day + docetaxel/ADT
  Change of plasma VEGF-A level over time: tended to decrease
[8]; lycopene 90 mg/day + docetaxel/ADT
  Change of plasma VEGF-A level over time: little change
[8]; lycopene 150 mg/day + docetaxel/ADT
  Change of plasma VEGF-A level over time: to increase
[9]; lycopene 30 mg/day + docetaxel/ADT, all time points
  Change of CEC number vs pre-treatment: decreased
[9]; lycopene 90 mg daily + docetaxel/ADT
  Change of CEC number vs pre-treatment: increased CEC levels at all time points
[9]; lycopene 150 mg daily + docetaxel/ADT
  Change of CEC number vs pre-treatment: significant increase in CECs only on day 57
[10]
  Change of plasma IGFBP-3 from pretreatment level: no statistically significant differences
[11]; in combination with docetaxel 75 mg/m^2 and ADT
  Maximum tolerated dose (MTD) of synthetic lycopene: 150 mg/day
[11]; in vivo
  Dose-limiting toxicity: No DLT
[11]; male, human, in vivo
  Probability of toxicity, dose level 1: 0
  Probability of toxicity, dose level 2: .009
  Probability of toxicity, dose level 3: .106
[12]; 150 mg lycopene daily, day 78, p = .048
  Change of ligand-dependent phosphorylation of IGF1-R(Y1131): borderline decrease
[12]; 150 mg lycopene daily, day 99, p = .027
  Change of ligand-dependent phosphorylation of IGF1-R(Y1131): significant decrease
[12]; 30 or 90 mg/day lycopene, day 15 to 99
  Change of ligand-dependent phosphorylation of IGF1-R(Y1131): did not show a consistent change
